Source: paper PMC7180948, “New Insights into 4-Anilinoquinazolines as Inhibitors of Cardiac Troponin I–Interacting Kinase (TNNi3K)” (Molecules, 2020)

Columns and labels:
Assay in all cases: biochemical
Set-up in all cases: KINOMEscan competition binding panel (Eurofins DiscoverX), single concentration, percent inhibition
Conditions in all cases: read-out: 15 at 1 µM % inhibition
[1] = biological target: T1, MKK7 (Homo sapiens, UniProt O14733)
T1 construct: gene MAP2K7
Procedure, shortened: (§1)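 Selectivity profile from a KINOMEscan run against >400 human kinases; test concentration 1 µM.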

[2] = biological target: PIK3CA (Homo sapiens, UniProt P42336)
Procedure, shortened: as §1

[3] = biological target: CIT (Homo sapiens, UniProt O14578)
Procedure, shortened: as §1

[4] = biological target: T2, PFTK1 (Homo sapiens, UniProt O94921)
T2 construct: gene CDK14
Procedure, shortened: as §1

[5] = biological target: MYLK4 (Homo sapiens, UniProt Q86YV6)
Procedure, shortened: as §1

[6] = biological target: T3, CDC2L1 (Homo sapiens, UniProt P21127)
T3 construct: gene CDK11B
Procedure, shortened: as §1

[7] = biological target: T4, YANK1 (Homo sapiens, UniProt Q8WU08)
T4 construct: gene STK32A
Procedure, shortened: as §1

[8] = biological target: AURKC (Homo sapiens, UniProt Q9UQB9)
Procedure, shortened: as §1

[9] = biological target: EGFR(E746-A750del) (Homo sapiens, UniProt P00533, DEL746-750)
Procedure, shortened: as §1

[10] = biological target: WNK3 (Homo sapiens, UniProt Q9BYP7)
Procedure, shortened: as §1

[11] = biological target: TAOK1 (Homo sapiens, UniProt Q7L7X3)
Procedure, shortened: as §1

[12] = biological target: T5, ERK8 (Homo sapiens, UniProt Q8TD08)
T5 construct: gene MAPK15
Procedure, shortened: as §1

[13] = biological target: T6, ABL1(T315I)-nonphosphorylated (Homo sapiens, UniProt P00519, T315I)
T6 construct: nonphosphorylated
Procedure, shortened: as §1

[14] = biological target: T7, DCAMKL1 (Homo sapiens, UniProt O15075)
T7 construct: gene DCLK1
Procedure, shortened: as §1

[15] = biological target: ALK(C1156Y) (Homo sapiens, UniProt Q9UM73, C1156Y)
Procedure, shortened: as §1

[16] = biological target: FLT3(D835Y) (Homo sapiens, UniProt P36888, D835Y)
Procedure, shortened: as §1

[17] = biological target: EPHB6 (Homo sapiens, UniProt O15197)
Procedure, shortened: as §1

[18] = biological target: HIPK3 (Homo sapiens, UniProt Q9H422)
Procedure, shortened: as §1

[19] = biological target: PIK3CA(E545A) (Homo sapiens, UniProt P42336, E545A)
Procedure, shortened: as §1

[20] = biological target: T8, YES (Homo sapiens, UniProt P07947)
T8 construct: gene YES1
Procedure, shortened: as §1

[21] = biological target: PIK3CA(H1047Y) (Homo sapiens, UniProt P42336, H1047Y)
Procedure, shortened: as §1

[22] = biological target: KIT(A829P) (Homo sapiens, UniProt P10721, A829P)
Procedure, shortened: as §1

[23] = biological target: T9, RSK3(Kin.Dom.2-C-terminal) (Homo sapiens, UniProt Q15349)
T9 construct: gene RPS6KA2; Kin.Dom.2-C-terminal
Procedure, shortened: as §1

Chain of AURKC (Q9UQB9 whole entry): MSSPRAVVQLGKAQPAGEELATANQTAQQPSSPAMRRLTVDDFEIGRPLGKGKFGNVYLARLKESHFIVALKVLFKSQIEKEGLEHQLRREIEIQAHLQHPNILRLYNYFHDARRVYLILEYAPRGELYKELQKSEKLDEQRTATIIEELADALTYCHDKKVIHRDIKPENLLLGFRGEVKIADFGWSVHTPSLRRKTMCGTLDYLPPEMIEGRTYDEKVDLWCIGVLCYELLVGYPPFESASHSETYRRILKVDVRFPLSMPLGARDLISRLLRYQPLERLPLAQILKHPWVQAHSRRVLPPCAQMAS
Chain of HIPK3 (Q9H422 whole entry): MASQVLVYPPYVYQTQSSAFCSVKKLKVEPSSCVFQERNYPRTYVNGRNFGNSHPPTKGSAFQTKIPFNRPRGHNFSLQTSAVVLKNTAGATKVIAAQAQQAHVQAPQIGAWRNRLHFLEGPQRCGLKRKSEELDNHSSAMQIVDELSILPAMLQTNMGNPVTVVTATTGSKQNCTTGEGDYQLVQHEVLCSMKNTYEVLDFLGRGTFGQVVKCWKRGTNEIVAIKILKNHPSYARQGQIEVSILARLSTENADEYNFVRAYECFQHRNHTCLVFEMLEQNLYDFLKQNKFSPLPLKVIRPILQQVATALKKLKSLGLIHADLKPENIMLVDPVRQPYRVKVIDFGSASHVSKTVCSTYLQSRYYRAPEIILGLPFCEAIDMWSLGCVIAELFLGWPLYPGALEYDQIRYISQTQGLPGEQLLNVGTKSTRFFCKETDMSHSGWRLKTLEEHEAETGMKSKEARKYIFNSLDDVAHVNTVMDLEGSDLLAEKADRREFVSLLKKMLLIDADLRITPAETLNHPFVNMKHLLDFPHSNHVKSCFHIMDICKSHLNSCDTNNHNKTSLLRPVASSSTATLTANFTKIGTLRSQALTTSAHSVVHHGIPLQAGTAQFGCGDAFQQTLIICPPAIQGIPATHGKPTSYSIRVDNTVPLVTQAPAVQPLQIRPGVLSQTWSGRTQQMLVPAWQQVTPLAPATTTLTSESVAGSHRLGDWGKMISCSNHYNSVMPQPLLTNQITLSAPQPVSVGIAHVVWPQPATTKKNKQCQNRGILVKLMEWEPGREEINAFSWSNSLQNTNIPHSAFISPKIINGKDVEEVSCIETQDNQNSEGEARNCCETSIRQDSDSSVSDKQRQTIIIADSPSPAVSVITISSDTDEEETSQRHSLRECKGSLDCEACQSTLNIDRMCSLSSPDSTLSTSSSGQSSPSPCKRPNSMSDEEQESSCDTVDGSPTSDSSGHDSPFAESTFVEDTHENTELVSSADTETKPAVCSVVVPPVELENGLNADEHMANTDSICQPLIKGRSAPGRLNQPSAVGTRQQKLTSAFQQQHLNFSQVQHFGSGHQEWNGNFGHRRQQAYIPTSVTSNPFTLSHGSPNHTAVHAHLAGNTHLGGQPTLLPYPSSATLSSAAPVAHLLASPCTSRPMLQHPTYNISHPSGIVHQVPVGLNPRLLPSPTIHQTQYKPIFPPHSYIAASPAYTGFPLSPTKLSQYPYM
Chain of CIT (O14578 whole entry): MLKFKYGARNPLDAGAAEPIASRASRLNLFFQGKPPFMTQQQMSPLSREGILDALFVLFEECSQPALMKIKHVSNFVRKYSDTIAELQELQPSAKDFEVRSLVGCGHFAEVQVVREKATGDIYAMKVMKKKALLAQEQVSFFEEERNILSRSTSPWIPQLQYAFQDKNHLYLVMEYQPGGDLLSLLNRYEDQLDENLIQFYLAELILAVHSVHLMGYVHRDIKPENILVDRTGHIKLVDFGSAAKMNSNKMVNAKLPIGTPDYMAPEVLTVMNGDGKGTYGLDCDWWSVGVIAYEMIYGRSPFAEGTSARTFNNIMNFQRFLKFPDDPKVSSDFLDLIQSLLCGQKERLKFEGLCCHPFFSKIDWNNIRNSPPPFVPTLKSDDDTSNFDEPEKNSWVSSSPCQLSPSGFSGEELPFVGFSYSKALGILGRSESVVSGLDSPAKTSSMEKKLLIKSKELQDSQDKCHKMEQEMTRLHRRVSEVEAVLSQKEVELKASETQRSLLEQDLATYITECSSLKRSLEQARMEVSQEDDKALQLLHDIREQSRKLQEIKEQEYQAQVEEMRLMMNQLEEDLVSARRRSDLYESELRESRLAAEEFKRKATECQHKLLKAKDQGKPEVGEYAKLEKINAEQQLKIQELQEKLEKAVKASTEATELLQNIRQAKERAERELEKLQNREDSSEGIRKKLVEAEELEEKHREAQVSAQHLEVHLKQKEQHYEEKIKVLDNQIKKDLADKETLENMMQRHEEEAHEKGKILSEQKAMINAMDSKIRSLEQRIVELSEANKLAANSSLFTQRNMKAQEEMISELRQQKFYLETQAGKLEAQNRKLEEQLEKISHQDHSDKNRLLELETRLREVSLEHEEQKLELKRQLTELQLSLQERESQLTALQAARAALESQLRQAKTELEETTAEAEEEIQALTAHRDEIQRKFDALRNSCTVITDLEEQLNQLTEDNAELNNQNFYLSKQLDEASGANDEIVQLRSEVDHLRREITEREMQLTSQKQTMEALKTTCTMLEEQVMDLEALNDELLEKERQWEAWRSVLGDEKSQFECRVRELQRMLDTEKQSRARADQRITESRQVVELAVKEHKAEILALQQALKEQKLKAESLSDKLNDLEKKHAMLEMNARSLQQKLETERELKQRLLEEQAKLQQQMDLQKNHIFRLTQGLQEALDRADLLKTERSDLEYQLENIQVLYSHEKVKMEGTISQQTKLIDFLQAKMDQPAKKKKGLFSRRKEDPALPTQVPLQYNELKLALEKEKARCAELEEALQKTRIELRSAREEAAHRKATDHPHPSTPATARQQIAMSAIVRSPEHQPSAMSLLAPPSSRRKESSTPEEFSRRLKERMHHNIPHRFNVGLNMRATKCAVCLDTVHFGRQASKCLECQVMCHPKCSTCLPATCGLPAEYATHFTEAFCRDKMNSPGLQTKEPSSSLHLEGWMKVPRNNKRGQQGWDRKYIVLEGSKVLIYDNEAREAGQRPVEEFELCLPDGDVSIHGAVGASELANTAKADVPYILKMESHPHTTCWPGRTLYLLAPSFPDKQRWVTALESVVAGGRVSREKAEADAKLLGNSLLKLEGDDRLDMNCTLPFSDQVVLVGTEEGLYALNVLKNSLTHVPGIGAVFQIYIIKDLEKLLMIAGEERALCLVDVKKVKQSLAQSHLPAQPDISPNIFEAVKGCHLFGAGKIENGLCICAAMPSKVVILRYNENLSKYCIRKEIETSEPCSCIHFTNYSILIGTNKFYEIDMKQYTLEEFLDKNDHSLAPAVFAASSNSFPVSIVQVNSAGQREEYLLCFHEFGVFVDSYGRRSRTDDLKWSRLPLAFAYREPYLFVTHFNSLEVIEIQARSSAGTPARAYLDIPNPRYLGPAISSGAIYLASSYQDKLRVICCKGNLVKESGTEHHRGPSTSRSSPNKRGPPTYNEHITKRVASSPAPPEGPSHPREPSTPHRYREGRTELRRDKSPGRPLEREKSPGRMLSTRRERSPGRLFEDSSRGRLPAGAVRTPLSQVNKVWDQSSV
T4 sequence (Q8WU08 whole entry): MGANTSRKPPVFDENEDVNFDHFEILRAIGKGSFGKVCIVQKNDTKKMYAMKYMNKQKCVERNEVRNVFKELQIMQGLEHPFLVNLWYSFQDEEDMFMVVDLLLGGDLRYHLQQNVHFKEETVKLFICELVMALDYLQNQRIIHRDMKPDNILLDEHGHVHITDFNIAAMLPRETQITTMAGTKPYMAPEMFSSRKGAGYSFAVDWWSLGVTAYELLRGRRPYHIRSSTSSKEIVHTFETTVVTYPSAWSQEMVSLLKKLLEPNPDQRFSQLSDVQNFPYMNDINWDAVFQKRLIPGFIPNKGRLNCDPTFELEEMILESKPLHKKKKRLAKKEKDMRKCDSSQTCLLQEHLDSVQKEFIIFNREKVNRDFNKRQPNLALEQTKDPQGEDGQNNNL
Chain of MYLK4 (Q86YV6 whole entry): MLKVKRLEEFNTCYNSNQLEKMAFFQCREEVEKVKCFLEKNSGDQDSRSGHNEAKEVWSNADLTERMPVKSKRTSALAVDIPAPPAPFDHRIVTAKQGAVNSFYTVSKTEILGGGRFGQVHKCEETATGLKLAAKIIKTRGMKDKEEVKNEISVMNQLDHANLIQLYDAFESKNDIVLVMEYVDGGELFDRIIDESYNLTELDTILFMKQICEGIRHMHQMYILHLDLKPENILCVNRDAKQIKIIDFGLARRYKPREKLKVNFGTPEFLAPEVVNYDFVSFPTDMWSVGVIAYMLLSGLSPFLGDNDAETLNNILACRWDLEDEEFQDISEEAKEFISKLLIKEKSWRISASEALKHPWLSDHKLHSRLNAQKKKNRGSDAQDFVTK
T7 sequence (O15075 whole entry): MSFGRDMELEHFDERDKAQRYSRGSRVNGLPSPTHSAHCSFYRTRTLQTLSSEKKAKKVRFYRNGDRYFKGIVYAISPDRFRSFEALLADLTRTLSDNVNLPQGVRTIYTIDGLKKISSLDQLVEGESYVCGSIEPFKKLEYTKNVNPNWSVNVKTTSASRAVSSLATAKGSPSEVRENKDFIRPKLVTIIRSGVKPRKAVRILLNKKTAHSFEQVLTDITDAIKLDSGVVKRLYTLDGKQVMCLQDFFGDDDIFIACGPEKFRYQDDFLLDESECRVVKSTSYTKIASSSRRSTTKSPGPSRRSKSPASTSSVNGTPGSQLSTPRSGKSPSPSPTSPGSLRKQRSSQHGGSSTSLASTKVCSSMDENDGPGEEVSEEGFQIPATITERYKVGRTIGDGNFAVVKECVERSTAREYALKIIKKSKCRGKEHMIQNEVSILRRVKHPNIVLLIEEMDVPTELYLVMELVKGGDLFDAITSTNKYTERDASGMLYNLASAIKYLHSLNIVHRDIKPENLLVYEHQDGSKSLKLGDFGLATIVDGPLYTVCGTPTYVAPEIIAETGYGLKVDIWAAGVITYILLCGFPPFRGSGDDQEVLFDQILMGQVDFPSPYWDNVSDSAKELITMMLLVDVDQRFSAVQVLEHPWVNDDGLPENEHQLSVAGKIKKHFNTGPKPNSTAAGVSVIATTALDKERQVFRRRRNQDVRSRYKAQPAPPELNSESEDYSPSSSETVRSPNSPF

inhibition at 1 µM [1]: 30%
inhibition at 1 µM [2]: 13%
inhibition at 1 µM [3]: 4%
inhibition at 1 µM [4]: 0%
inhibition at 1 µM [5]: 0%
inhibition at 1 µM [6]: 7%
inhibition at 1 µM [7]: 0%
inhibition at 1 µM [8]: 0%
inhibition at 1 µM [9]: 31%
inhibition at 1 µM [10]: 0%
inhibition at 1 µM [11]: 15%
inhibition at 1 µM [13]: 9%
inhibition at 1 µM [14]: 9%
inhibition at 1 µM [15]: 4%
inhibition at 1 µM [16]: 4%
inhibition at 1 µM [17]: 0%
inhibition at 1 µM [18]: 28%
inhibition at 1 µM [19]: 1%
inhibition at 1 µM [20]: 0%
inhibition at 1 µM [21]: 21%
inhibition at 1 µM [22]: 42%
inhibition at 1 µM [23]: 0%
SMILES: CNS(=O)(=O)c1ccc(N(C)C)c(Nc2nc(C)nc3cc(OC)c(OC)cc23)c1 [compound 15, 3-((6,7-dimethoxy-2-methylquinazolin-4-yl)amino)-4-(dimethylamino)-N-methylbenzenesulfonamide]
inhibition at 1 µM [12]: 0%
